The target of series [1] is CYP3A4 (Homo sapiens, UniProt P08684). Briefly: IC50 vs CYP3A by inhibition of lopinavir metabolism in human liver microsomes. Type of series: biochemical. The following applies: pH 7.4, human liver microsomes, 1.5 μM lopinavir, 8 min at 37° C., test concentrations 0.098-100 nM, read-out: 3A4(LPV). Here is the method:
Determination of IC50 vs CYP3A by Measurement of Inhibition of Lopinavir Metabolism
This assay was performed in a standard 96-well plate design. IC50 values were calculated from the percent inhibition observed for each test compound at 6 concentrations (for example, 0.098, 0.391, 1.56, 6.25, 25 and 100 nM). The incubation substrate mix contains 1.5 μM lopinavir, 0.01 mg/mL protein human liver microsomes (BD Gentest), 1 mM NAPDH, 3.3 mM MgCl2 and 100 mM potassium phosphate buffer (pH 7.4). The production of the sum of three hydroxylated metabolites (M2: 6-hydroxy lopinavir, M3: 4-hydroxy lopinavir, M4: 4-hydroxy lopinavir (epimer of M3), Kumar et al., 1999) was determined after incubation for 8 min at 37° C. Quantitation of the metabolite peak area ratio against an internal standard (tolbutamide) was determined by LC/MS/MS analysis following acetonitrile treatment of the incubations.
Samples were analyzed in the MRM mode with a SCIEX API-4000 mass spectrometer (Applied Biosystems, Foster City, Calif.), with a Shimadzu LC-20 AD pump (Shimadzu corporation, Kyoto, JP) and a CTC PAL autosampler (Agilent Technologies, Switzerland). A Phenomenex, Luna, 5 μm, 100 A, 2.00×30 mm HPLC column was used for the separation. The mobile phases were: (A) 0.1% formic acid in water and (B) 0.1% formic acid in acetonitrile. The binary gradient was as follows.
The peak area ratio of the analyte to the internal standard was used to quantify the metabolite. The values of peak area ratios in the presence of test compound were compared to those of maximum or minimum controls and were expressed as % inhibition by interpolating between the maximum and minimum peak area ratios. Incubations with no inhibitor were defined as the maxima and with 5 μM ketoconazole were defined as the minima
(§1) The following equation was used to calculate the % inhibition:
(§2) [1−[(X−Low control)/(High control−Low control)]]*100
(§3) For the IC50 calculation, SigmaPlot was used to plot the mean % inhibition versus the test compound concentrations and for non-linear regression analysis of the data. Depending on the range of data points defining the inhibition curve, the data may have been fit to the 4-parameter logistic equation.

The target of series [2] is T1, CYP2C9 (Homo sapiens, UniProt P11712).
T1 construct: 0.1 mg/mL protein human liver microsomes (BD Gentest); tissue BD Gentest; host or cells: human liver microsomes
T1 sequence (P11712 whole entry): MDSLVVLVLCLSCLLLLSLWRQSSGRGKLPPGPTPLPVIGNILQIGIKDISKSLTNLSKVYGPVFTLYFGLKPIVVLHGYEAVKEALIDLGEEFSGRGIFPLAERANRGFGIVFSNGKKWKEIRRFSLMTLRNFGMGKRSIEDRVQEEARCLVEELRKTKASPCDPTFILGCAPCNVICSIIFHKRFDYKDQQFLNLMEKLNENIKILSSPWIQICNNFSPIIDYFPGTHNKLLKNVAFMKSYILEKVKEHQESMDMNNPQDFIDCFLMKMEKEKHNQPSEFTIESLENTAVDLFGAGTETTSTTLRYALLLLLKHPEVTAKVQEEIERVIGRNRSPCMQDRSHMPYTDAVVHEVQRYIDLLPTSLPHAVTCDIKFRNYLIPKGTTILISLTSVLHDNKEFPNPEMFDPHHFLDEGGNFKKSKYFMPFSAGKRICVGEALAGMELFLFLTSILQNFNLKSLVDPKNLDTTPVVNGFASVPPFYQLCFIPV
Put plainly: Cocktail CYP assay, diclofenac 4'-hydroxylation. The series is classed as in vitro ADME. Particulars: human liver microsomes, 5 μM diclofenac; test concentrations up to 10 μM. Here is the method:
Determination of IC50 in a Cocktail Assay for CYPs 1A2, 2C9, 2C19, 2D6 and 3A4
This assay was performed in a standard 96-well plate design. IC50 values were calculated from the percent inhibition observed for each test compound at 6 concentrations (for example, 0.0032, 0.016, 0.08, 0.4, 2 and 10 μM). The incubation substrate mix contains 10 μM phenacetin (1A2), 5 μM diclofenac (2C9), 30 μM mephenyloin (2C19), 5 μM dextromethorphan (2D6) and 2 μM midazolam (3A4), 0.1 mg/mL protein human liver microsomes (BD Gentest), 1 mM NAPDH, 3.3 mM MgCl2 and 100 mM potassium phosphate buffer (pH 7.4). The production of the metabolite of each probe substrate was determined after incubation for 10 min at 37° C. Quantitation of the metabolite peak area ratio against an internal standard (tolbutamide) was determined by LC/MS/MS analysis following acetonitrile treatment of the incubations.
Samples were analyzed in the MRM mode with a SCIEX API-4000 mass spectrometer (Applied Biosystems, Foster City, Calif.), with a Shimadzu LC-20 AD pump (Shimadzu corporation, Kyoto, JP) and a CTC PAL autosampler (Agilent Technologies, Switzerland). A Phenomenex, Luna, […], 100 A, 2.00×30 mm HPLC column was used for the separation. The mobile phases were: (A) 0.1% formic acid in water and (B) 0.1% formic acid in acetonitrile. The binary gradient was as follows.
The peak area ratio of the analyte to the internal standard was used to quantify the metabolite. The values of peak area ratios in the presence of test compound were compared to those of maximum or minimum controls and were expressed as % inhibition by interpolating between the maximum and minimum peak area ratios. Incubations with no inhibitor were defined as the maxima.
as §1, §2, §3

Series [3] has as its target T2, human CYP11B1 (Homo sapiens, UniProt P15538).
T2 construct: expressed in transfected cells
T2 sequence (P15538 25-503): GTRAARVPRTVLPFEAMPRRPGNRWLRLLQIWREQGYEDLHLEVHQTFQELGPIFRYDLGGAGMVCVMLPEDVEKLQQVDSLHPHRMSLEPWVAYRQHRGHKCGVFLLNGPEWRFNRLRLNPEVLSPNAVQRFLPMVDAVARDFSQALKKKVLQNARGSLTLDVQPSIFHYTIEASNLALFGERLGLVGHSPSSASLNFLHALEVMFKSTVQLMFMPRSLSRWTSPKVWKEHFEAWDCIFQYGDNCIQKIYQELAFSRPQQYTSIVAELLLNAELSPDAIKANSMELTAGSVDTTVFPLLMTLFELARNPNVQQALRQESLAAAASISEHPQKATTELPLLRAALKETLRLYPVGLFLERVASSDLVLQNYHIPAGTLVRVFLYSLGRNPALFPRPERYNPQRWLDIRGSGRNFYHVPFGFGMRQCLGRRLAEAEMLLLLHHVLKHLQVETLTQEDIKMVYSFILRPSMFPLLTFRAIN
Briefly: IC50 vs CYP11B1 by cortisol synthesis in V79 cells. Particulars: V79 cells expressing human CYP11B1, 1500 nM RSS, cortisol HTRF; test concentrations 0.5-10000 nM. Type of series: cell-based. Here is the method:
Determination of IC50 vs CYP11B1/CYP11B2 by Measurement of Cortisol/Aldosterone Synthesis
This assay was performed in a standard 384-well plate design using cultured V79 cells stably expressing human CYP11B1 or human CYP11B2. Test compounds at 10 concentrations (for example, 10000, 3333.3, 1111.1, 370.4, 123.5, 41.2, 13.7, 4.6, 1.5 and 0.5 nM) were added in 384-well plate after the cell-seeding procedure. The incubation substrate contains 1500 nM RSS for CYP11B1 assay/750 nM DOC for CYP11B2 assay. The
Cortisol/Aldosterone production of cell culture supernatant was determined by Cortisol/Aldosterone HTRF kit after for about 15 hours incubation at RT (protect from light). IC50 values were calculated from the percent inhibition observed for each test compound at 10 concentrations.
The assay plate was read using Envision (Perkin Elmer, Waltham, Mass.) at 665 nm and 590 nm (using Filter Barcode of 217#, 205#; Mirror Barcode of 446#).
Data are analyzed using Assay Data Analyzer. All ratio data (665 nm/590 nm) are back calculated according to the standard curve, resulting in Cortisol/Aldosterone concentrations. IC50 values are reported as the Inflection Point (IP) of a four parameter fit of the titration data.
as §1
% Activity=100×{1−(Sample_back calculated Cortisol/Aldosterone concentration−LC_back calculated Cortisol/Aldosterone concentration)/(HC_back calculated Cortisol/Aldosterone concentration−LC_back calculated Cortisol/Aldosterone concentration)}

pIC50: −log10 of the molar value. Where only a bound is given, the exact number is not on record here.

This passage reports IC50 results from patent US20140005103A1, “SULFONAMIDE DERIVATIVES AND METHODS OF USE THEREOF FOR IMPROVING THE PHARMACOKINETICS OF A DRUG” (Merck, Sharp & Dohme Corp., priority 2012, published 2014).

Chain of CYP3A4 (P08684 2-503): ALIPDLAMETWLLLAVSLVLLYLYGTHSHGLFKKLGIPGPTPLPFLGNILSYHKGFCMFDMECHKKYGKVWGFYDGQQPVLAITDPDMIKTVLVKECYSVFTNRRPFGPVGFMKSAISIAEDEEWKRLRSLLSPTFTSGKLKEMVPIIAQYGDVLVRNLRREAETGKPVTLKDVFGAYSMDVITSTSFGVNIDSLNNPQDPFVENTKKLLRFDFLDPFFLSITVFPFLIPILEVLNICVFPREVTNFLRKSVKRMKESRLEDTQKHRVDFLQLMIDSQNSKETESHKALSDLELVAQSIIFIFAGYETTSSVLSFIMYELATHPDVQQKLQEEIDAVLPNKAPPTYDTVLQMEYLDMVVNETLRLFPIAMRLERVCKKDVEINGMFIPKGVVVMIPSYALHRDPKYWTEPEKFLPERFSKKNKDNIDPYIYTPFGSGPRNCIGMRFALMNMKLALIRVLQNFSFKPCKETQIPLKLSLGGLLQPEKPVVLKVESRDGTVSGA

On to `C[C@H](c1ccc(F)cc1)n1cncc1CN1CCN(S(=O)(=O)c2cncc(N3CCNCC3)c2)CC1` [Compound 29], for which the IC50 at 8 min in series [1] is 0.0029 µM. Moreover, the negative logarithm of the IC50 (pIC50) was less than 5.00 in series [2] and 5.84 in series [3].
In the case of `C[C@H](c1ccc(F)cc1)n1cncc1CN1CCN(S(=O)(=O)c2cnc(N3CC(=O)N4C[C@H](O)C[C@H]4C3)s2)CC1` [Compound 16], the IC50 at 8 min in series [1] is 0.0052 µM. For the same compound, the pIC50 is 5.04 in series [2] and less than 5.00 in series [3].
On to `C[C@H](c1ccc(F)cc1)n1cncc1CN1CCN(S(=O)(=O)c2cnc(N3C[C@@H]4C[C@@H](O)CN4C[C@@H]3C)s2)CC1` [Compound 21], for which, in series [1], the IC50 at 8 min turned out to be 0.0019 µM. Besides, the negative-log IC50 (pIC50) in series [2] was 5.94; in series [3], 5.41.
As to `CN1CCN(c2ncc(S(=O)(=O)N3CCN(Cc4cncn4CCOc4ccc(Cl)cc4)CC3)s2)CC1` [Compound 32], in series [1], the IC50 at 8 min came out at 0.0012 µM. Also, the pIC50 in series [2] is 5.81; in series [3] it was 5.80.
On the same counts, the results for `C[C@H](c1ccc(F)cc1)n1cncc1CN1CCN(S(=O)(=O)c2cnc(N3CCC(N)(CO)CC3)s2)CC1` [Compound 25] are 0.0019 µM, 5.01 and 5.16.
Consider `C[C@H](c1ccc(F)cc1)n1cncc1CN1CCN(S(=O)(=O)c2cnc(N3CCN(C)CC3)s2)CC1` [Compound 2], for which the IC50 at 8 min in series [1] turned out to be 0.001 µM. For the same compound, the negative-log IC50 (pIC50) in series [2] was 5.49; in series [3], 6.67.
As for `Cc1ccc(C2(n3cncc3CN3CCN(S(=O)(=O)c4cnc(N5CCN(C)CC5)s4)CC3)CC2)nc1` [Compound 31], the IC50 at 8 min in series [1] worked out at 0.0044 µM. In addition, the negative logarithm of the IC50 (pIC50) in series [2] and in series [3] was less than 5.00 throughout.
For `C[C@H](c1ccc(F)cc1)n1cncc1C1COCC2CN(S(=O)(=O)c3cnc(Nc4ccccn4)s3)CCN21` (stereo partly drawn) [Compound 40], the IC50 at 8 min in series [1] worked out at 0.0008 µM. Moreover, the negative logarithm of the IC50 (pIC50) is 6.45 in series [2] and 5.94 in series [3].
For `C[C@H](c1ccc(C#N)cc1)n1cncc1CN1CCN(S(=O)(=O)c2cnc(Nc3ccc(C(F)(F)F)cn3)s2)CC1` [Compound 4], the IC50 at 8 min in series [1] was less than 0.0001 µM. Further, the pIC50 in series [2] was 5.73; in series [3], 6.65.
As to `C[C@H](c1ccc(F)cc1)n1cncc1CN1CCN(S(=O)(=O)c2cnc(N3CCC4(CC3)CNC(=O)N4)s2)CC1` [Compound 3], in series [1], the IC50 at 8 min was 0.0027 µM. Further, the negative logarithm of the IC50 (pIC50) in series [2] is 5.83; in series [3], less than 5.00.
On the same counts, the results for `CC1CN(c2ncc(S(=O)(=O)N3CCN(Cc4cncn4[C@H](C)c4ccc(F)cc4)CC3)s2)C[C@@H]2C[C@@H](O)CN12` (stereo partly drawn) [Compound 23] are 0.0016 µM, 5.30 and 5.91.
As to `C[C@H](c1ccc(F)cc1)n1cncc1CN1CCN(S(=O)(=O)c2ccc(N3CCNCC3)cn2)CC1` [Compound 28], in series [1], the IC50 at 8 min came out at 0.0044 µM. For the same compound, the pIC50 was 5.18 in series [2] and 5.45 in series [3].
On the same counts, the results for `C[C@H](c1ccc(F)cc1)n1cncc1CN1CCN(S(=O)(=O)c2cnc(N3CCNCC3)s2)CC1` [Compound 1] are 0.0014 µM, 5.64 and 5.75.
On the same counts, the results for `C[C@H](c1ccc(F)cc1)n1cncc1CN1CCN(S(=O)(=O)c2cnc(N3CC[C@@H](N4CCOCC4)[C@H](F)C3)s2)CC1` [Compound 20] are 0.0041 µM, 5.35 and 5.99.
For `C[C@H](c1ccc(F)cc1)n1cncc1CN1CCN(S(=O)(=O)c2cnc(N3CCN4C[C@H](O)CC[C@H]4C3)s2)CC1` [Compound 19], in that order: 0.0017 µM, 5.85 and 5.73.
On to `CC(c1cncn1[C@H](C)c1ccc(F)cc1)N1CCN(S(=O)(=O)c2cnc(N3CCN4C[C@H](O)C[C@H]4C3)s2)CC1` (stereo partly drawn) [Compound 37], for which the IC50 at 8 min in series [1] was found to be 0.0041 µM. The values for the negative-log IC50 (pIC50) in series [2] and in series [3] were 5.21 and 5.42, respectively.
On the same counts, the results for `C[C@H](c1ccc(F)cc1)n1cncc1CN1CCN(S(=O)(=O)c2cnc(N3CCN4C[C@H](O)C[C@H]4C3)s2)CC1` [Compound 5] are 0.0038 µM, 5.35 and 5.70.
On the same counts, the results for `C[C@H](c1ccc(F)cc1)n1cncc1CN1CCN(S(=O)(=O)c2cnc(N3CCN4CCC(O)[C@H]4C3)s2)CC1` (stereo partly drawn) [Compound 27] are 0.0026 µM, 5.75 and 5.80.
On the same counts, the results for `C[C@H](c1ccc(F)cc1)n1cncc1CN1CCN(S(=O)(=O)c2cnc(N3CC[C@@H]4NCCO[C@H]4C3)s2)CC1` [Compound 15] are 0.0012 µM, 5.61 and 5.77.
`C[C@H](c1ccc(F)cc1)n1cncc1CN1CCN(S(=O)(=O)c2cnc(NCC(F)CN)s2)CC1` (stereo partly drawn) [Compound 17]: the IC50 at 8 min in series [1] amounted to 0.0017 µM. Moreover, the negative-log IC50 (pIC50) is 5.61 in series [2] and less than 5.00 in series [3].
On the same counts, the results for `C[C@H](c1ccc(F)cc1)n1cncc1CN1CCN(S(=O)(=O)c2cnc(N3CC[C@@H](N)[C@H](F)C3)s2)CC1` [Compound 11] are less than 0.00098 µM, 5.67 and 5.96.
